# Test results from the NIST ThermoML archive (doi:10.1021/je0202174).
# Numbers after ± are expanded uncertainties.
# Conditions: Liquid
SMILES,viscosity (253.15 K) [mPa·s],viscosity (258.15 K) [mPa·s],viscosity (263.15 K) [mPa·s],viscosity (268.15 K) [mPa·s],viscosity (273.15 K) [mPa·s],viscosity (278.15 K) [mPa·s],viscosity (283.15 K) [mPa·s],viscosity (288.15 K) [mPa·s],viscosity (293.15 K) [mPa·s],viscosity (298.15 K) [mPa·s],viscosity (303.15 K) [mPa·s],viscosity (308.15 K) [mPa·s],viscosity (313.15 K) [mPa·s],viscosity (318.15 K) [mPa·s],viscosity (323.15 K) [mPa·s],viscosity (328.15 K) [mPa·s],viscosity (333.15 K) [mPa·s],viscosity (338.15 K) [mPa·s],viscosity (343.15 K) [mPa·s],viscosity (348.15 K) [mPa·s],other results
CCC(C)C [2-methylbutane],0.3893 ± 0.0075,0.3661 ± 0.0072,0.3439 ± 0.0069,0.3201 ± 0.0065,0.3023 ± 0.0063,0.2859 ± 0.0061,0.2703 ± 0.0058,0.2547 ± 0.0056,0.2399 ± 0.0054,0.2289 ± 0.0052,0.2144 ± 0.005,0.2023 ± 0.0049,0.191 ± 0.0047,0.1813 ± 0.0046,0.1724 ± 0.0044,0.1611 ± 0.0043,0.1543 ± 0.0042,0.148 ± 0.0041,0.1411 ± 0.004,0.1332 ± 0.0039,viscosity (353.15 K): 0.1287 ± 0.0038 mPa·s
C1CCCC1 [cyclopentane],0.7268 ± 0.012,0.6786 ± 0.011,0.6347 ± 0.011,0.593 ± 0.01,0.5567 ± 0.0098,0.5224 ± 0.0093,0.4922 ± 0.0089,0.4646 ± 0.0085,0.4382 ± 0.0081,0.4148 ± 0.0078,0.3923 ± 0.0075,0.3714 ± 0.0072,0.3521 ± 0.0069,0.335 ± 0.0067,0.319 ± 0.0065,0.3048 ± 0.0063,0.2912 ± 0.0061,0.2793 ± 0.0059,0.269 ± 0.0058,0.259 ± 0.0056,viscosity (353.15 K): 0.2502 ± 0.0055 mPa·s
